Test results reported in ChEMBL document CHEMBL4130407, “A novel class of thiosemicarbazones show multi-functional activity for the treatment of Alzheimer's disease” (Eur J Med Chem, 2017).
Activity calls are given as the source filed them. No cut-off for these calls is given here.

What was measured:
SK-N-MC [1] = assay: cells; details: Homo sapiens, read-out: Activity
Description: (§1) Neuroprotective activity against H2O2-induced cell death in human SK-N-MC cells assessed as cell viability at 10 uM preincubated for 2 hrs followed by H2O2 addition and measured after 24 hrs by MTT assay

SK-N-MC [2] = assay: Binding affinity to 59Fe2+ in human SK-N-MC cells labeled with 59Fe2-transferrin assessed as Fe release at 25 uM after 3 hrs by gamma scintillation counting method relative to DFO; assay type: cell-based
[3] = Metal chelation activity assessed as 1:2 Fe2+:L complex formation in DMF:H2O (7:3) solution by EPR spectrscopy
SK-N-MC [4] = assay: Induction of autophagy in human SK-N-MC cells assessed as decrease in p62 level at 25 uM after 24 hrs by Western blot analysis; assay type: functional, cell-based
SK-N-MC [5] = assay: Induction of autophagy in human SK-N-MC cells assessed as increase in LC3 accumulation at 25 uM after 24 hrs in presence of autophagy inhibitor Baf1 by Western blot analysis; assay type: functional, cell-based
Acetylcholinesterase = Acetylcholinesterase (Electrophorus electricus, UniProt O42275); assay: Inhibition of electric eel AChE using acetylthiocholine iodide as substrate preincubated for 15 mins followed by substrate addition measured for 5 mins by UV spectrophotometric analysis
Sequence of Acetylcholinesterase (O42275 whole entry): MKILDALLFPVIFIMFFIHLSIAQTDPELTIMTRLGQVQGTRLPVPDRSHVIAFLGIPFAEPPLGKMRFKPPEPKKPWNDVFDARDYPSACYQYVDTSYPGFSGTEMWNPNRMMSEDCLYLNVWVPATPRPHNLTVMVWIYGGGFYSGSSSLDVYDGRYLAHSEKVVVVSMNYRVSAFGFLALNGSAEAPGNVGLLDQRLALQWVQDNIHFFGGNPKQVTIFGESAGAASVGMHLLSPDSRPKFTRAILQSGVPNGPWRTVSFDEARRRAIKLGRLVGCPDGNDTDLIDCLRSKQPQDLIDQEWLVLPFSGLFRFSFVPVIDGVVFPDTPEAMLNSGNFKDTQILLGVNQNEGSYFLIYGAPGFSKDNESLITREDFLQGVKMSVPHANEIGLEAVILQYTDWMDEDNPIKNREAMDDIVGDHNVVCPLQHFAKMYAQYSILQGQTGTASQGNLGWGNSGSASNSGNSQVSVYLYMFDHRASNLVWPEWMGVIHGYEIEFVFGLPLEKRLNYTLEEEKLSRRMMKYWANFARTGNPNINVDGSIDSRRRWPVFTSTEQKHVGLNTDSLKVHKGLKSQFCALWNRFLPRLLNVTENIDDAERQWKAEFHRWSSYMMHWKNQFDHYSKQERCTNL

[6] = Metal chelation activity assessed as 1:1 compound to Cu2+L complex formation in DMF:H2O (7:3) solution by EPR spectrscopy
SK-N-MC [7] = assay: cells; assay type: ADME, cell-based; details: Homo sapiens, 72 h
Description: Antiproliferative activity against human SK-N-MC cells after 72 hrs by MTT assay

[8] = Metal chelation activity assessed as 1:2 Fe3+:L complex formation in DMF:H2O (7:3) solution by EPR spectrscopy
[9] = Metal chelation activity assessed as 1:1 compound to Cu2+L complex formation in DMF:H2O (7:3) solution by cyclic voltametry
[10] = Metal chelation activity assessed as 1:2 Fe3+:L complex formation in DMF:H2O (7:3) solution by cyclic voltametry
[11] = Metal chelation activity assessed as 1:1 compound to Cu2+L2 complex formation in DMF:H2O (7:3) solution by EPR spectrscopy
SK-N-MC [12] = assay: Induction of autophagy in human SK-N-MC cells assessed as increase in LC3 accumulation at 25 uM after 24 hrs in absence of autophagy inhibitor Baf1 by Western blot analysis; assay type: functional, cell-based
SK-N-MC [13] = details: Homo sapiens, 10 uM
Description: as §1

For `Oc1ccc(/C=N/NC(=S)NC2CCN(Cc3ccccc3)CC2)c(O)c1O`, the viability at 10 µM (SK-N-MC [1]) was 66 to 87%, the Activity (SK-N-MC [2]) was 14% and the Activity [3] was “Active”. The Activity (SK-N-MC [4]) was “inactive”, the Activity (SK-N-MC [5]) was “Active” and the IC50 (Acetylcholinesterase) was 1.02 to 22.6 µM. The Activity [6] was “Active” and the IC50 (SK-N-MC [7]) was 79.1 µM.

For `S=C(N/N=C/c1ccc2ccccc2n1)NC1CCN(Cc2ccccc2)CC1`, the Activity [8] was “Active”, the Activity [9] was “Active” and the viability at 10 µM (SK-N-MC [1]) was 66 to 87%. For the same compound, the Activity (SK-N-MC [4]) was “inactive”, the Activity (SK-N-MC [5]) was “inactive” and the IC50 (Acetylcholinesterase) was 1.02 to 22.6 µM. For the same compound, the Activity [10] was “Active”, the Activity [6] was “Active” and the IC50 (SK-N-MC [7]) was 17.7 µM.

In the case of `Cc1ncc(CO)c(/C=N/NC(=S)NC2CCN(Cc3ccccc3)CC2)c1O`, the Activity [8] is reported as “Active”, the Activity [9] is reported as “Active” and the viability at 10 µM (SK-N-MC [1]) is reported as 66 to 87%. The Activity (SK-N-MC [2]) was 31%, the Activity (SK-N-MC [4]) was “inactive” and the Activity (SK-N-MC [5]) was “Active”. For the same compound, the IC50 (Acetylcholinesterase) was 4.93 µM, the Activity [10] was “Active” and the Activity [6] was “Active”. For the same compound, the Activity [11] was “inactive” and the IC50 (SK-N-MC [7]) was > 100 µM.

With `S=C(N/N=C/c1ccccn1)NC1CCN(Cc2ccccc2)CC1` the Activity [8] was “Active”, the Activity [9] was “Active” and the viability at 10 µM (SK-N-MC [1]) was 66 to 87%. The Activity (SK-N-MC [2]) was 18%, the Activity (SK-N-MC [4]) was “inactive” and the Activity (SK-N-MC [5]) was “Active”. The IC50 (Acetylcholinesterase) was 1.02 to 22.6 µM, the Activity [10] was “Active” and the Activity [6] was “Active”. The IC50 (SK-N-MC [7]) was 4.23 µM.

With `Oc1cccc(/C=N/NC(=S)NC2CCN(Cc3ccccc3)CC2)c1O` the viability at 10 µM (SK-N-MC [1]) was 66 to 87%, the Activity (SK-N-MC [2]) was 29% and the Activity (SK-N-MC [4]) was “inactive”. For the same compound, the Activity (SK-N-MC [12]) was “Active”, the Activity (SK-N-MC [5]) was “inactive” and the IC50 (Acetylcholinesterase) was 1.02 µM. The Activity [6] was “Active” and the IC50 (SK-N-MC [7]) was 16.9 µM.

With `Oc1ccc2ccccc2c1/C=N/NC(=S)NC1CCN(Cc2ccccc2)CC1` the Activity [8] was “Active”, the Activity [9] was “Active” and the Activity (SK-N-MC [2]) was 16%. For the same compound, the Activity (SK-N-MC [4]) was “Active”, the Activity (SK-N-MC [12]) was “Active” and the Activity (SK-N-MC [5]) was “inactive”. The IC50 (Acetylcholinesterase) was 1.23 µM, the Activity [10] was “Active” and the Activity [6] was “Active”. For the same compound, the Activity (SK-N-MC [13]) was “inactive”, the Activity [11] was “inactive” and the IC50 (SK-N-MC [7]) was 8.86 µM.

In the case of `Oc1ccccc1/C=N/NC(=S)NC1CCN(Cc2ccccc2)CC1`, the Activity [8] is reported as “Active”, the Activity [9] is reported as “Active” and the viability at 10 µM (SK-N-MC [1]) is reported as 66 to 87%. For the same compound, the Activity (SK-N-MC [2]) was 28%, the Activity (SK-N-MC [4]) was “Active” and the Activity (SK-N-MC [5]) was “inactive”. The IC50 (Acetylcholinesterase) was 1.02 to 22.6 µM, the Activity [10] was “Active” and the Activity [6] was “Active”. For the same compound, the Activity [11] was “inactive” and the IC50 (SK-N-MC [7]) was 34.4 µM.

For `Oc1cccc2ccc(/C=N/NC(=S)NC3CCN(Cc4ccccc4)CC3)nc12`, the Activity [9] was “Active”, the viability at 10 µM (SK-N-MC [1]) was 66 to 87% and the Activity (SK-N-MC [2]) was 17%. For the same compound, the Activity (SK-N-MC [4]) was “inactive”, the Activity (SK-N-MC [12]) was “Active” and the Activity (SK-N-MC [5]) was “Active”. The IC50 (Acetylcholinesterase) was 1.02 to 22.6 µM, the Activity [10] was “Active” and the Activity [6] was “Active”. The IC50 (SK-N-MC [7]) was 36.1 µM.

With `CN(C)C(=S)NN=C(c1ccccn1)c1ccccn1` the Activity (SK-N-MC [4]) was “Active”, the Activity (SK-N-MC [5]) was “Active” and the IC50 (SK-N-MC [7]) was 0.013 µM.

`CC(=O)N(O)CCCCCNC(=O)CCC(=O)N(O)CCCCCNC(=O)CCC(=O)N(O)CCCCCN` [DEFEROXAMINE] gave a viability at 10 µM (SK-N-MC [1]) of 89% and an IC50 (SK-N-MC [7]) of 16.8 µM.

In the case of `COc1cc2c(cc1OC)C(=O)C(CC1CCN(Cc3ccccc3)CC1)C2` (stereo unspecified) [DONEPEZIL], the viability at 10 µM (SK-N-MC [1]) is reported as 74% and the IC50 (SK-N-MC [7]) is reported as > 100 µM.
